Experiment [1] deals with A2780cis cell line. As to the kind of experiment: Growth inhibition assay (modified MTT). It counts as cell-based, human. As to conditions: A2780cis, five-day MTT. The method, then: (§1) The sensitivities of the cell lines to cisplatinum, carboplatinum, and compounds A-F were determined using a growth inhibition assay which was a modified version of the MTT method (modified version of MTT method described in Appendix B).
(§2) The following is a brief description of the eleven different cell lines used in the growth inhibition assay: • The A2780 cell line (1 in FIGS. 1-9) is a human ovarian cell line which is sensitive to cisplatinum and carboplatinum. […] The cor123/cpr (7) cell line is a modified version of the cor123 cell line which has been modified to be resistant to cisplatinum and carboplatinum. • The ccu24 (8) cell line is an epithelial ovarian cancer cell line, developed at the Christie Hospital from a tumour biopsy, and the ccu24/cpr (9) cell line is a modified version of this cell line which is cisplatinum and carboplatinum resistant. • L1210 (10) is a murine leukemia cell line and L1210/M1140 (11) is its platinum drug resistant subline.
(§3) The cell toxicity studies were performed using a modification of the method MTT.^7 The principle of the assay is to assess the growth inhibitory effect of a drug at various doses over a five-day time course. This assay was performed in 96-well microtitre plates. Cells were seeded at densities of 400-1,000 cells per well, depending on the doubling time of the cell line. All cell dilutions were performed in growth medium containing 10% FCS (foetal calf serum).
(§4) Compounds under investigation were dissolved in DMSO (dimethylsulphoxide). Serial dilutions of compound were made into the cell suspension, ensuring that the proportion of DMSO remained below 0.5%. 200 μl of cells and drug mix was added to the 96-well plates in triplicate. The plates were incubated for five days at 5% CO2 and 37° C. After this time, the plates were removed from the incubator and 50 μl of a 3 mg/ml solution of MTT [3-(4,5-dimethyl-thiazol-2-yl)-2,5-diphenyl tetrazolium bromide] was added to each well and incubated in the same conditions for another 3 hours. The medium from each well was aspirated and the formazan crystals were solubilised in 200 μl of DMSO. The plates were read using a Multiskan platereader at 540 nm and 690 nm. Growth inhibition curves were constructed using mean and standard deviation of the triplicate absorbance values and from these curves the IC50 values were calculated.

Experiment [2] concerns A2780carb cell line. As to the kind of experiment: Growth inhibition assay (modified MTT). As to conditions: A2780carb, five-day MTT. It is filed as cell-based, human. Here is the method: as §1, §2, §3, §4
The test system of experiment [3] is ccu24/cpr cell line. Description: Growth inhibition assay (modified MTT). As to conditions: five-day MTT. It counts as cell-based, human. The method, then:
as §1, §2, §3, §4

Experiment [4] has as its system A2780-S cell line. Description: Growth inhibition assay (modified MTT). It is filed as cell-based, human. Conditions: five-day MTT. Here is the method: as §1, §2, §3, §4
For experiment [5], the system named is cor123 cell line. As to the kind of experiment: Growth inhibition assay (modified MTT). It is filed as cell-based, human. As to conditions: five-day MTT. The method, then:
as §1, §2, §3, §4

The test system of experiment [6] is ccu24 cell line. As to the kind of experiment: Growth inhibition assay (modified MTT). As to conditions: five-day MTT. It counts as cell-based, human. The method, then:
as §1, §2, §3, §4

For experiment [7], the system named is mcp8 cell line. Description: Growth inhibition assay (modified MTT). It counts as cell-based, human. As to conditions: five-day MTT. Here is the method: as §1, §2, §3, §4
Experiment [8] relates to cor123/cpr cell line. Description: Growth inhibition assay (modified MTT). Conditions: five-day MTT. It is filed as cell-based, human. The method, then:
as §1, §2, §3, §4

In experiment [9] the test system is mcp1 cell line. As to the kind of experiment: Growth inhibition assay (modified MTT). It is filed as cell-based, human. As to conditions: five-day MTT. The method, then: as §1, §2, §3, §4
In experiment [10] the test system is L1210/M1140 cell line. As to the kind of experiment: Growth inhibition assay (modified MTT). It counts as cell-based, murine. Conditions: five-day MTT. Here is the method:
as §1, §2, §3, §4

The test system of experiment [11] is L1210 cell line. As to the kind of experiment: Growth inhibition assay (modified MTT). It counts as cell-based, murine. As to conditions: five-day MTT. Here is the method:
as §1, §2, §3, §4

The subject of experiment [12] is parental and platinum-resistant cell lines. As to the kind of experiment: Comet assay, DNA cross-linking, summary of FIGS. 1-9. As to conditions: FIGS. 1 and 2. It counts as cell-based. The method, then: (§5) Preliminary studies have been carried out to investigate the mechanism underlying this increased sensitivity. These studies were carried out using the Comet assay (described in Appendix C), which measures damage to DNA. The results are shown in FIGS. 1 (cisplatinum), 2 (carboplatinum), 3 to 8 (compounds A-F) and 9 (phenylgoldtriphenylphospine, PAuP).
(§6) DNA damage was measured by the single cell gel electrophoresis (SCGE) assay or “Comet assay”, originally developed by Ostling and Johnson^8. This is a method for determining the extent of DNA damage and repair capacity within individual cells.^9-11 It has previously been shown that this technique can be used to investigate the mechanism of action of different DNA damaging agents.^12
(§7) Cells were trypsinised, suspended in 0.5 ml of ice cold fresh medium and transferred into plastic 24-well dishes prior to embedding in agarose. For the cross-linking studies treated and control samples were chilled on ice (to prevent any repair of DNA damage) and irradiated to a dose of 20 Gy in a Caesium-137 source (0.4 Gy/min). Control, (unirradiated, non-drug treated cells) were maintained on ice in the same manner as treated samples.
(§8) Glass microscope slides, frosted at one end, were pre-coated with 1% normal agarose in distilled water. These slides were allowed to air dry overnight prior to use. A 1% low melting point agarose (LMP) mixture in PBS was melted and held at 45° C. 1 ml of LMP was then added to 0.5 ml of cell suspension on ice and the resultant mixture was pipetted onto a pre-coated glass microscope slide and allowed to set for 1-2 minutes before being transferred to an ice tray. The slides were immersed in ice cold lysis solution (100 mM EDTA, 10 mM Tris-HCl, 1% Triton ×100, 1% DMSO, 2.5M NaCl) for 1 hr, and washed three times by immersion in fresh double distilled water for 15 minutes.
(§9) Slides were then placed onto a flat bed electrophoresis tank and covered (5-6 mm) with alkali unwinding solution (50 mM NaOH, 1 mM EDTA buffered to pH 12.5) and left under subdued lighting for 45 minutes to allow the DNA to unwind before being subjected to electrophoresis at 0.6V/cm for 25 minutes. Each slide was rinsed with 2×1 ml of 0.4M Tris-HCl, pH 8.0 and allowed to dry in air. The dried slides were then rehydrated for 20 minutes with double distilled water, 2×1 ml of propidium iodide solution (2.5 μg/ml) was added and staining was allowed to proceed for 15 minutes. Slides were then immersed in 1 litre of double distilled water for 1 hour to reduce excess background staining. The slides were cover slipped and then examined at 250× magnification under an epifluorescent microscope (Zeiss-Jenamed) using green light from a 50 watt mercury source with a 580 nm reflector and a 590 nm barrier filter set. Images were captured using an attached Sony HAD-1 interline CCD camera and Komet software analysis package (Kinetic Imaging). Twenty-five images from each of two duplicate slides were captured and analysed and the individual “comet moments” as defined by Olive et al^13, were calculated. The total fluorescence of the image represents the amount of DNA present and the length of the image, measured in pixels, represents the length of migration of the DNA. The head and tail areas of the image were identified and the intensity of each was determined. The tail moment is calculated by multiplying the fraction of DNA present in the tail by half the length of the tail.

Experiment [13] relates to A2780carb. As to the kind of experiment: Comet assay, DNA crosslinking. It is filed as cell-based, human. As to conditions: ratio >1 = more cross-linking in parental than in platinum-resistant line. The method, then:
as §5
(§10) Table 3 illustrates the results of the following calculation using the DNA cross-linking results obtained in the Comet assays:
as §6, §7, §8, §9

Experiment [14] concerns A2780cis. Description: Comet assay, DNA crosslinking. It is filed as cell-based, human. As to conditions: ratio >1 = more cross-linking in parental than in platinum-resistant line. Here is the method: as §5, §10, §6, §7, §8, §9
Experiment [15] concerns cor123. As to the kind of experiment: Comet assay, DNA crosslinking. It is filed as cell-based, human. Conditions: ratio >1 = more cross-linking in parental than in platinum-resistant line. Here is the method: as §5, §10, §6, §7, §8, §9
The test system of experiment [16] is ccu24. As to the kind of experiment: Comet assay, DNA crosslinking. It counts as cell-based, human. As to conditions: ratio >1 = more cross-linking in parental than in platinum-resistant line. The method, then: as §5, §10, §6, §7, §8, §9
The test system of experiment [17] is A2780mcp1. As to the kind of experiment: Comet assay, DNA crosslinking. It counts as cell-based, human. Conditions: ratio >1 = more cross-linking in parental than in platinum-resistant line. The method, then:
as §5, §10, §6, §7, §8, §9

In experiment [18] the test system is A2780/mcp8. Description: Comet assay, DNA crosslinking. As to conditions: ratio >1 = more cross-linking in parental than in platinum-resistant line. It is filed as cell-based, human. The method, then: as §5, §10, §6, §7, §8, §9
In experiment [19] the test system is L1210. Description: Comet assay, DNA crosslinking. Conditions: ratio >1 = more cross-linking in parental than in platinum-resistant line. It counts as cell-based, murine. The method, then: as §5, §10, §6, §7, §8, §9
The mark [20] stands for this setting: Table 2, further series of assays.
Where [21] appears, read: Table 2, further series of assays, A2780/mcp8.
[22] abbreviates: Table 2, further series of assays, A2780/mcp1.
Where [23] appears, read: Table 1, first series of assays.

As usually defined, the IC50 is the point on the concentration scale where inhibition reaches its midpoint. Lower therefore signals higher potency. As to `N.N.O=C([O-])C1(C(=O)[O-])CCC1.[Pt+2]` [Carboplatin, carboplatin, reference compound], the half-maximal inhibitory concentration (IC50) was 34600 nM in experiment [1] (setting [20]); 32200 nM in [2] (setting [20]); 27200 nM in experiment [3] (setting [20]); 1590 nM in experiment [4] (setting [20]); 5350 nM in [5] (setting [20]); 5820 nM in [6] (setting [20]). Further, the half-inhibitory concentration (IC50) in [7] (setting [21]) was 26800 nM; in experiment [8] (setting [20]), 29800 nM; in [9] (setting [22]), 24800 nM; in [10] (setting [20]) it was 47800 nM; in [11] (setting [20]), 15300 nM. Also, the “DNA cross-linking in parental cell lines” value in experiment [12] (parental (platinum-sensitive) A2780, L1210 and cor123 cell lines) is on record as “extensive DNA cross-linking”. The “DNA cross-linking in platinum-resistant cell lines” value in experiment [12] (platinum-resistant cell lines) is “much less cross-linking”.

As to `c1ccc([PH]([Au][CH2]c2cc[c]([Au][PH](c3ccccc3)(c3ccccc3)c3ccccc3)cc2)(c2ccccc2)c2ccccc2)cc1` [D], the half-inhibitory concentration (IC50) was determined as 7.3 nM in [1] (setting [23]); 10.2 nM in experiment [1] (setting [20]); 10.3 nM in [2] (setting [23]); 13.5 nM in experiment [2] (setting [20]); 12.5 nM in experiment [3] (setting [23]); 15.6 nM in experiment [3] (setting [20]). Moreover, the half-maximal inhibitory concentration (IC50) in experiment [4] (setting [23]) was 32.4 nM; in [4] (setting [20]), 36.6 nM; in [5] (setting [23]), 22.3 nM; in [5] (setting [20]) it was 25.4 nM; in experiment [6] (setting [23]), 36.4 nM; in experiment [6] (setting [20]), 39.5 nM. Moreover, the concentration for half-maximal inhibition (IC50) in experiment [7] (Table 1, first series of assays, mcp8) is 6.8 nM; in [7] (setting [21]), 14.8 nM; in experiment [8] (setting [23]), 15.7 nM; in experiment [8] (setting [20]), 19.7 nM; in experiment [9] (Table 1, first series of assays, mcp1) it was 8.4 nM; in [9] (setting [22]), 19.5 nM. Besides, the IC50 in [10] (setting [23]) was found to be 17.4 nM; in experiment [10] (setting [20]) it was 20.6 nM; in experiment [11] (setting [23]), 48.7 nM; in experiment [11] (setting [20]) it was 50.3 nM. Also, the “DNA crosslinking (Comet) ratio” value in experiment [13] is on record as 0.63; in [14], 0.54; in experiment [15] it was 0.62; in [16], 0.47; in experiment [17] it was 0.48; in experiment [18], 0.50. For the same compound, the “DNA crosslinking (Comet) ratio” value in experiment [19] worked out at 0.63.

Source of the values: US7732485B2, “Treatment of cancer” (The University of Manchester, priority 2003, dated 2010).
